Source: ChEMBL document CHEMBL3580582, “The Cephalostatins. 23. Conversion of Hecogenin to a Steroidal 1,6-Dioxaspiro[5.5]nonane Analogue for Cephalostatin 11” (2015)
In brackets after ≈: the same amount, converted by molar mass.

System: not listed separately
Experiment: Cytotoxicity against human NCI60 cells
Assay type: functional
Details: not given

Work on `C[C@@H]1[C@]2(O[C@H]3C=C4[C@@H]5CC[C@H]6Cc7nc8c(nc7C[C@]6(C)[C@H]5C[C@@H](O)[C@]4(C)[C@]31O)C[C@@H]1CC[C@H]3C4=CC[C@@H]5[C@H](C)[C@@]6(OC[C@]45C(=O)C[C@@H]3[C@@]1(C)C8)OC(C)(C)C[C@H]6O)O[C@](C)(CO)C[C@H]2O` [CEPHALOSTATIN 1] yielded a GI50 of 1.8 nM.

System: not listed separately
Experiment: Cytotoxicity against human NCI60 cells by SRB assay
Assay type: functional
Details: not given

Going from `C[C@@H]1[C@]2(O[C@H]3C=C4[C@@H]5CC[C@H]6Cc7nc8c(nc7C[C@]6(C)[C@H]5C[C@@H](O)[C@]4(C)[C@]31O)C[C@@H]1CC[C@H]3C4=C[C@@H]5O[C@]6(CCC(C)(C)O6)[C@@H](C)[C@@H]5[C@@]4(C)[C@H](O)C[C@@H]3[C@@]1(C)C8)O[C@@](C)(CO)C[C@H]2O` to `C[C@@H]1[C@]2(O[C@H]3C=C4[C@@H]5CC[C@H]6Cc7nc8c(nc7C[C@]6(C)[C@H]5C[C@@H](O)[C@]4(C)[C@]31O)C[C@@H]1CC[C@H]3C4=C[C@@H]5O[C@]6(CCC(C)(C)O6)[C@@H](C)[C@@H]5[C@@]4(C)[C@H](O)C[C@@H]3[C@@]1(C)C8)O[C@](C)(CO)C[C@H]2O`, the GI50 rises from 0.48 nM to 14 nM (29-fold).

System: P388
Experiment: Cytotoxicity against mouse P388 cells assessed as growth inhibition after 48 hrs by coulter particle counter analysis
Assay type: functional
Details: P388, 48 h, read-out: ED50 (the source's name)

`CC(=O)OC[C@]1(C)CC[C@@]2(O[C@H]3C[C@H]4[C@@H]5CC[C@H]6CC(=O)CC[C@]6(C)[C@H]5CC(=O)[C@]4(C)[C@H]3[C@@H]2C)O1` and `CC(=O)OC[C@@](C)(O)CCC1=C(C)[C@H]2[C@H](C[C@H]3[C@@H]4CC[C@H]5CC(=O)CC[C@]5(C)[C@H]4CC(=O)[C@@]32C)O1` cannot be ordered by EC50: greater than 10 µg/mL for the first, 19.3 µg/mL (≈ 39.7 µM) for the second.

`CC(=O)O[C@H]1CC[C@@]2(C)[C@@H](CC[C@@H]3[C@@H]2CC(=O)[C@@]2(C)[C@H]3C[C@@H]3OC(CCC(C)CCl)=C(C)[C@@H]32)C1` (some centres undefined) and `CC1=C(CCC(C)CCl)O[C@H]2C[C@H]3[C@@H]4CC[C@H]5CC(=O)CC[C@]5(C)[C@H]4CC(=O)[C@]3(C)[C@@H]12` (some centres undefined) cannot be ordered by EC50: greater than 100 µg/mL for the first, greater than 100 µg/mL for the second.

Compared with `C=C(C)CCC1=C(C)[C@H]2[C@H](C[C@H]3[C@@H]4CC[C@H]5CC(=O)CC[C@]5(C)[C@H]4CC(=O)[C@@]32C)O1`, `CC1=C(CC[C@](C)(O)CO)O[C@H]2C[C@H]3[C@@H]4CC[C@H]5CC(=O)CC[C@]5(C)[C@H]4CC(=O)[C@]3(C)[C@@H]12` is 1.6-fold higher in EC50: 14.5 µg/mL (≈ 35.3 µM) for the first, 23.4 µg/mL (≈ 52.6 µM) for the second.
